According to PubChem BioAssay (NCI):
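Grown in 96-well plates, cells were treated for 48 hours with each compound at five concentrations. Insufficient inhibition: endpoint recorded as highest concentration tested. TGI denotes the concentration required for complete inhibition of growth.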

Assays:
Test in all cases: growth of human tumour cells (NCI), 48 h
XF 498 CNS = system: XF 498 CNS
UO-31 renal = system: UO-31 renal
KM20L2 colon = system: KM20L2 colon
HCT-116 colon = system: HCT-116 colon
SK-MEL-28 melanoma = system: SK-MEL-28 melanoma
CCRF-CEM leukemia = system: CCRF-CEM leukemia
SF-539 CNS = system: SF-539 CNS
EKVX NSCLC = system: EKVX NSCLC
NCI-H522 lung = system: NCI-H522 lung
HOP-62 NSCLC = system: HOP-62 NSCLC
RXF 393 renal = system: RXF 393 renal
IGROV1 ovarian = system: IGROV1 ovarian
NCI-H23 lung = system: NCI-H23 lung
SK-OV-3 ovarian = system: SK-OV-3 ovarian
SK-MEL-5 melanoma = system: SK-MEL-5 melanoma
CAKI-1 renal = system: CAKI-1 renal
SW-620 colon = system: SW-620 colon
SF-268 CNS = system: SF-268 CNS
SF-295 CNS = system: SF-295 CNS
U251 CNS = system: U251 CNS
KM12 colon = system: KM12 colon
SK-MEL-2 melanoma = system: SK-MEL-2 melanoma
OVCAR-4 ovarian = system: OVCAR-4 ovarian
COLO 205 colon = system: COLO 205 colon
HL-60(TB) leukemia = system: HL-60(TB) leukemia
SR leukemia = system: SR leukemia
NCI-H460 lung = system: NCI-H460 lung
UACC-257 melanoma = system: UACC-257 melanoma
SN12C renal = system: SN12C renal
HOP-92 NSCLC = system: HOP-92 NSCLC
SNB-19 CNS = system: SNB-19 CNS
UACC-62 melanoma = system: UACC-62 melanoma
TK-10 renal = system: TK-10 renal
LXFL 529 NSCLC = system: LXFL 529 NSCLC
786-0 renal = system: 786-0 renal
MALME-3M melanoma = system: MALME-3M melanoma
OVCAR-3 ovarian = system: OVCAR-3 ovarian
M14 melanoma = system: M14 melanoma
HCC-2998 colon = system: HCC-2998 colon
SNB-75 CNS = system: SNB-75 CNS
DMS 273 small cell lung = system: DMS 273 small cell lung
HCT-15 colon = system: HCT-15 colon
A549 NSCLC = system: A549 NSCLC
ACHN renal = system: ACHN renal
DLD-1 colon = system: DLD-1 colon
LOX IMVI melanoma = system: LOX IMVI melanoma
NCI-H226 lung = system: NCI-H226 lung
K-562 leukemia = system: K-562 leukemia
A498 renal = system: A498 renal
OVCAR-8 ovarian = system: OVCAR-8 ovarian
MOLT-4 leukemia = system: MOLT-4 leukemia
HOP-18 NSCLC = system: HOP-18 NSCLC
OVCAR-5 ovarian = system: OVCAR-5 ovarian
M19-MEL melanoma = system: M19-MEL melanoma
RPMI-8226 leukemia = system: RPMI-8226 leukemia
SNB-78 CNS = system: SNB-78 CNS
DMS 114 small cell lung = system: DMS 114 small cell lung
HT29 colon = system: HT29 colon

Cc1cc([N+](=O)[O-])ccc1Sc1c2ccccc2nc2ccccc12
TGI (XF 498 CNS): 50 µM
TGI (UO-31 renal): > 100 µM
TGI (KM20L2 colon): 89.8 µM
TGI (HCT-116 colon): 66.6 µM
TGI (SK-MEL-28 melanoma): > 100 µM
TGI (CCRF-CEM leukemia): 79.5 µM
TGI (SF-539 CNS): 56.5 µM
TGI (EKVX NSCLC): > 100 µM
TGI (NCI-H522 lung): 38.9 µM
TGI (HOP-62 NSCLC): > 100 µM
TGI (RXF 393 renal): > 100 µM
TGI (IGROV1 ovarian): > 100 µM
TGI (NCI-H23 lung): 79.2 µM
TGI (SK-OV-3 ovarian): > 100 µM
TGI (SK-MEL-5 melanoma): > 100 µM
TGI (CAKI-1 renal): 97.3 µM
TGI (SW-620 colon): > 100 µM
TGI (SF-268 CNS): > 100 µM
TGI (SF-295 CNS): > 100 µM
TGI (U251 CNS): 78.9 µM
TGI (KM12 colon): 32.7 µM
TGI (SK-MEL-2 melanoma): 55.9 µM
TGI (OVCAR-4 ovarian): > 100 µM
TGI (COLO 205 colon): > 100 µM
TGI (HL-60(TB) leukemia): 49.1 µM
TGI (SR leukemia): 70.1 µM
TGI (NCI-H460 lung): > 100 µM
TGI (UACC-257 melanoma): 71.3 µM
TGI (SN12C renal): 93.3 µM
TGI (HOP-92 NSCLC): 98.2 µM
TGI (SNB-19 CNS): > 100 µM
TGI (UACC-62 melanoma): 66.8 µM
TGI (TK-10 renal): > 100 µM
TGI (LXFL 529 NSCLC): 45.5 µM
TGI (786-0 renal): 55.5 µM
TGI (MALME-3M melanoma): > 100 µM
TGI (OVCAR-3 ovarian): > 100 µM
TGI (M14 melanoma): > 100 µM
TGI (HCC-2998 colon): 56.1 µM
TGI (SNB-75 CNS): > 100 µM
TGI (DMS 273 small cell lung): > 100 µM
TGI (HCT-15 colon): 57.2 µM
TGI (A549 NSCLC): > 100 µM
TGI (ACHN renal): > 100 µM
TGI (DLD-1 colon): > 100 µM
TGI (LOX IMVI melanoma): 38.6 µM
TGI (NCI-H226 lung): > 100 µM
TGI (K-562 leukemia): > 100 µM
TGI (A498 renal): > 100 µM
TGI (OVCAR-8 ovarian): 84.4 µM
TGI (MOLT-4 leukemia): 73.1 µM
TGI (HOP-18 NSCLC): > 100 µM
TGI (OVCAR-5 ovarian): > 100 µM

COC(=O)C1CCC2(C)[C@H](CCC3O[C@]32C)[C@@]1(C)CC(=O)c1ccoc1 (stereo not given in full)
TGI (XF 498 CNS): > 100 µM
TGI (UO-31 renal): > 100 µM
TGI (KM20L2 colon): > 100 µM
TGI (HCT-116 colon): > 100 µM
TGI (SK-MEL-28 melanoma): > 100 µM
TGI (CCRF-CEM leukemia): > 100 µM
TGI (SF-539 CNS): > 100 µM
TGI (EKVX NSCLC): > 100 µM
TGI (NCI-H522 lung): > 100 µM
TGI (HOP-62 NSCLC): > 100 µM
TGI (M19-MEL melanoma): > 100 µM
TGI (RXF 393 renal): > 100 µM
TGI (IGROV1 ovarian): > 100 µM
TGI (NCI-H23 lung): > 100 µM
TGI (SK-OV-3 ovarian): > 100 µM
TGI (SK-MEL-5 melanoma): > 100 µM
TGI (RPMI-8226 leukemia): > 100 µM
TGI (CAKI-1 renal): > 100 µM
TGI (SW-620 colon): > 100 µM
TGI (SF-268 CNS): > 100 µM
TGI (SF-295 CNS): > 100 µM
TGI (U251 CNS): > 100 µM
TGI (KM12 colon): > 100 µM
TGI (OVCAR-4 ovarian): > 100 µM
TGI (COLO 205 colon): > 100 µM
TGI (HL-60(TB) leukemia): > 100 µM
TGI (SR leukemia): > 100 µM
TGI (NCI-H460 lung): > 100 µM
TGI (UACC-257 melanoma): > 100 µM
TGI (SN12C renal): > 100 µM
TGI (SNB-19 CNS): > 100 µM
TGI (UACC-62 melanoma): > 100 µM
TGI (TK-10 renal): > 100 µM
TGI (LXFL 529 NSCLC): > 100 µM
TGI (786-0 renal): > 100 µM
TGI (MALME-3M melanoma): > 100 µM
TGI (OVCAR-3 ovarian): > 100 µM
TGI (M14 melanoma): > 100 µM
TGI (HCC-2998 colon): > 100 µM
TGI (SNB-78 CNS): > 100 µM
TGI (DMS 273 small cell lung): > 100 µM
TGI (HCT-15 colon): > 100 µM
TGI (A549 NSCLC): > 100 µM
TGI (ACHN renal): > 100 µM
TGI (DMS 114 small cell lung): > 100 µM
TGI (DLD-1 colon): > 100 µM
TGI (LOX IMVI melanoma): > 100 µM
TGI (NCI-H226 lung): > 100 µM
TGI (K-562 leukemia): > 100 µM
TGI (A498 renal): > 100 µM
TGI (OVCAR-8 ovarian): > 100 µM
TGI (MOLT-4 leukemia): > 100 µM
TGI (OVCAR-5 ovarian): > 100 µM

O=C(Nc1ccc(Cl)c(Cl)c1)C(=O)C(C(=O)c1ccccc1F)C1OC(=O)c2ccccc21 (stereo not given)
TGI (XF 498 CNS): 79.5 µM
TGI (UO-31 renal): 37.2 µM
TGI (KM20L2 colon): 55.1 µM
TGI (HCT-116 colon): 30.4 µM
TGI (SK-MEL-28 melanoma): 75.2 µM
TGI (CCRF-CEM leukemia): 50.9 µM
TGI (SF-539 CNS): 28.1 µM
TGI (EKVX NSCLC): 68.6 µM
TGI (NCI-H522 lung): 27.3 µM
TGI (HOP-62 NSCLC): 76.2 µM
TGI (M19-MEL melanoma): 41.7 µM
TGI (HT29 colon): 88.8 µM
TGI (RXF 393 renal): 41.8 µM
TGI (IGROV1 ovarian): > 100 µM
TGI (NCI-H23 lung): 75.9 µM
TGI (SK-OV-3 ovarian): 69.9 µM
TGI (SK-MEL-5 melanoma): 35.9 µM
TGI (RPMI-8226 leukemia): 55.9 µM
TGI (CAKI-1 renal): 80.2 µM
TGI (SW-620 colon): 62.3 µM
TGI (SF-268 CNS): 92.1 µM
TGI (SF-295 CNS): > 100 µM
TGI (U251 CNS): 28.1 µM
TGI (KM12 colon): 37 µM
TGI (SK-MEL-2 melanoma): 38.2 µM
TGI (OVCAR-4 ovarian): > 100 µM
TGI (COLO 205 colon): 33.1 µM
TGI (HL-60(TB) leukemia): 41.2 µM
TGI (SR leukemia): > 100 µM
TGI (NCI-H460 lung): 43.8 µM
TGI (UACC-257 melanoma): > 100 µM
TGI (SN12C renal): 60.2 µM
TGI (HOP-92 NSCLC): > 100 µM
TGI (SNB-19 CNS): 47.8 µM
TGI (UACC-62 melanoma): 28.3 µM
TGI (TK-10 renal): 93.8 µM
TGI (LXFL 529 NSCLC): > 100 µM
TGI (M14 melanoma): 34.3 µM
TGI (HCC-2998 colon): 32.7 µM
TGI (SNB-78 CNS): 73.1 µM
TGI (SNB-75 CNS): 58.8 µM
TGI (DMS 273 small cell lung): 46.9 µM
TGI (HCT-15 colon): 35.5 µM
TGI (A549 NSCLC): 81.4 µM
TGI (ACHN renal): > 100 µM
TGI (DMS 114 small cell lung): 46.4 µM
TGI (DLD-1 colon): > 100 µM
TGI (LOX IMVI melanoma): 50.4 µM
TGI (NCI-H226 lung): 43.7 µM
TGI (K-562 leukemia): > 100 µM
TGI (A498 renal): > 100 µM
TGI (OVCAR-8 ovarian): 28.5 µM
TGI (MOLT-4 leukemia): > 100 µM
TGI (OVCAR-5 ovarian): > 100 µM
